Results on six compounds are retold here after patent US11299518B2, “Fusion respiratory syncytial virus inhibitors and use thereof” (priority 2016, dated 2022).

The term EC50 denotes the concentration needed to bring the measured effect to its halfway point. The low end stands for higher potency in that assay, the high end for lower potency in that assay.

Bridge positions count the residues as written; N and C are the ends. Square brackets hold non-standard residues; d marks the D form. Peptide text beside a SMILES is read from it. R8 = C=CCCCCCC[C@@](C)(N)C(=O)O; S5 = C=CCCC[C@](C)(N)C(=O)O

Data set [1] in a line: CD spectroscopy, percentage of helicity. It is filed as physicochemical. Conditions: CD at 222 nm, 10 mM phosphate buffer pH 7.5, 50 μM peptide, 25° C. As for the experimental part:
The secondary structure of the peptides was then characterized by circular dichroism (DC) as described below.
The circular dichroism spectra were acquired on a Jasco J-810 and on a Chirascan spectropolarimeter. The samples were prepared in 10 mM phosphate buffer, pH 7.5, at a peptide concentration of 50 μM. Data were recorded at 25° C. by stepscan from 180 nm to 260 nm in a 0.1 cm pathlength quartz cell using 0.2 nm wavelength increments, 1 nm bandwidth and a response time of 0.5 sec. Each spectrum was an average of three measurements and was subtracted from buffer baseline. The data were converted to per residue molar ellipticity units [θ] (deg·cm2·dmol−1·residue−1) and smoothed using the Igor software. The percentage of helicity was calculated as it follows:
[formula] whereby CD222=molar ellipticity at 222 nm in [mdeg], N=number of amino acids in the peptide and C=peptide molar concentration [mol/l].

The target in a further data set is T1, chymotrypsin (Bos taurus, UniProt P00766).
T1 construct: purchased Thermo Fisher Scientific
Put plainly: Proteolytic stability assay, chymotrypsin. Type of data set: in vitro ADME. The conditions noted are these: chymotrypsin (isolated protease); 100 mM Tris-HCl pH 8.0, 10 mM CaCl2, 25° C., LC-MS; read-out: t1/2 (min) Chymotrypsin. As to the method:
(§1) The compounds according to the invention are tested for their stability in a proteolytic stability assay as described below which is an important parameter to assess for the development of peptide therapeutics. Peptides of the invention 4bb, 4ca, 4a and their unstapled comparative peptide 4, as well as both SAH-RSVFBD isomers were treated with chymotrypsin and trypsin, and analysed by LC/MS to quantify the reaction products over time.
(§2) In vitro proteolytic degradation was measured via LC-MS using an Agilent Infinity 1280 UHPLC system coupled to an Agilent quadruple-time-of-flight (QTOF) 6530 with an Agilent Jet Stream electrospray ionisation (AJS ESI) source (all Agilent Technologies, Waldbronn, Germany). 5 μl of digested sample were injected onto a C18 column (Zorbax Eclipse Plus RRHD, 1.8 μm, 2.1*100 mm, Agilent Technologies, Waldbronn, Germany) equilibrated with solvent A and eluted with a flow rate of 0.4 ml/min over a 5-95% gradient of solvent B in 5 minutes, followed by 1.5 minutes at 95% and 0.5 minutes post-time where solvent A was 95% water, 5% acetonitrile with 0.2% formic acid and solvent B was 5% water, 95% acetonitrile with 0.2% formic acid. The AJS ESI source was operated with a capillary voltage of 4000V and a nozzle voltage of 600V with a drying gas temperature of 325° C. and flow rate of 10 l/min, nebulising gas pressure of 20 psi, and a sheath gas temperature of 300° C. and flow rate of 11l/min. Mass spectra were acquired in the positive ion mode from 100-3200 m/z at a rate of 1 scan per second in extended dynamic range (2 GHz) mode. The fragmentor, skimmer and octopole Radio Frequency voltages were set to 200, 60 and 750 V respectively. Data were acquired and analysed with Agilent MassHunter Workstation (version B.05).
(§3) Peptide digestion was performed as it follows: 10 μl of peptide at 0.29 mM in 50/50 acetonitrile/water were dissolved in 990 μl 100 mM Tris-HCl, pH 8.0 with 10 mM CaCl2. Following measurement of the undigested (to) sample, 10 μl of chymotrypsin at 50 μg/ml in 100 mM Tris-HCl, pH 8.0 with 10 mM CaCl2 were added and the sample was vortexed and placed immediately in the autosampler, set to 25° C. Trypsin digestion was performed as with chymotrypsin except that the buffer was in 50 mM Tris-HCl, pH8. Chymotrypsin and trypsin were purchased from Thermo Fisher Scientific.
(§4) The level of intact peptide was quantified by serial injection over time. Integration of the intact peptide compound chromatogram was performed using the Agilent Molecular Feature Extraction (MFE) algorithm. A plot of the intact peptide MFE peak area over time gave an exponential decay curve, from which the half-life was determined using MatLab […].

The subject of another data set is trypsin. In words: Proteolytic stability assay, trypsin. Type of data set: in vitro ADME. The conditions noted are these: trypsin (isolated protease), pH 8; 50 mM Tris-HCl pH8, 25° C., LC-MS; read-out: t1/2 (min) Trypsin. As for the experimental part: as §1, §2, §3, §4
The test system of another data set is hRSV. Conditions: literature; cited from earlier work.
The test system of another data set is bRSV. Conditions: literature; cited from earlier work.
Another data set in a line: circular dichroism. The conditions noted are these: 10 mM phosphate; pH 7.5; 25 °C; 50 uM.
Data set [2] has as its system 5HB, a recombinant 5 helix bundle protein containing 3 HR1 domains covalently attached to 2 HR2 domains. The conditions noted are these: 50 nM 5HB, 2 nM FITC-T108.
Description: The fluorescence polarization assay was performed in 384-well plates using a Spectramax Paradigm (Molecular devices), using an excitation and emission wavelength of 485 nm and 535 nm, respectively. The acquisition time was of 700 ms and the read height was of 1 mm.
The test system of the next data set is RSV-mCherry. It is filed as cell-based, HRSV. As to the method: The inhibitory activity of the peptides of the invention was assessed in HEp-2 cells as described below:
A mCherry-expressing virus recently developed (Rameix-Welti et al., 2014, Nat. Commun., 5:5104) was used to avoid the cumbersome manipulations required with the GFP-expressing virus.
HEp-2 cells were seeded at 5×10^4 cells per well in 96 wells plate the day before the infection. Peptides were 2-fold serially diluted in DMSO (11 dilutions), then further diluted in MEM medium and pre-incubated for 15-20 minutes with 0.2 MOI of RSV-mCherry (Rameix-Welti et al., 2014, supra). Following the washing of Hep-2 cells with MEM without phenol red medium, the cells were incubated with the virus/peptide mixtures for a period of 1 h30-2 h. The cells were washed and further incubated in MEM media containing fetal bovine serum and the same concentration of peptide that was used during the infection step. Plates were incubated 48 h at 37° C. and the mCherry fluorescence was measured using a spectrofluorometer (Tecan infinite M200PRO) with excitation and emission wavelengths of 580 and 620 nm, respectively (expressed in relative fluorescence units RFU). Non-infected HEp-2 cells were used as standards for fluorescence background levels. Each experiment was performed in duplicate and repeated at least twice.

In the case of `CC[C@H](C)[C@H](NC(=O)[C@H](CCCCN)NC(=O)[C@H](CCC(=O)O)NC(C)=O)C(=O)N[C@@H](CC(N)=O)C(=O)N[C@@H](CCC(N)=O)C(=O)N[C@@H](CO)C(=O)N[C@@H](CC(C)C)C(=O)N[C@@]1(C)CCCC=CCCC[C@@](C)(C(=O)N[C@@H](CO)C(=O)N[C@@H](CC(=O)O)C(=O)N[C@@]2(C)CCCC=CCCC[C@@](C)(C(=O)N[C@H](C(N)=O)C(C)C)NC(=O)[C@H](Cc3c[nH]cn3)NC(=O)[C@H](CC(C)C)NC(=O)[C@H](CC(C)C)NC2=O)NC(=O)[C@H](CCCNC(=N)N)NC(=O)[C@H]([C@@H](C)CC)NC(=O)[C@H](Cc2ccccc2)NC1=O` [Peptide 4a, EKINQSL Xaa8 FIR Xaa12 SD Xaa15 LLH Xaa19 V] (Ac-EKINQSL[S5]FIR[S5]SD[S5]LLH[S5]V-NH2; staple 8-12, 15-19), in data set [1], the “% helicity” value came to 23.5%. In addition, the half-life at 2.9 µM worked out at 4480 min at chymotrypsin and 76 min in the data set with trypsin.

As for `CC[C@H](C)[C@H](NC(=O)[C@H](CCCCN)NC(=O)[C@H](CCC(=O)O)NC(C)=O)C(=O)N[C@@]1(C)CCCC=CCCC[C@@](C)(C(=O)N[C@@H](Cc2ccccc2)C(=O)N[C@H](C(=O)N[C@@]2(C)CCCC=CCCC[C@@](C)(C(=O)N[C@@H](CC(C)C)C(=O)N[C@@H](CC(C)C)C(=O)N[C@@H](Cc3c[nH]cn3)C(=O)N[C@@H](CC(N)=O)C(=O)N[C@H](C(N)=O)C(C)C)NC(=O)[C@H](CC(=O)O)NC(=O)[C@H](CO)NC(=O)[C@H](CCCCN)NC2=O)[C@@H](C)CC)NC(=O)[C@H](CC(C)C)NC(=O)[C@H](CO)NC(=O)[C@H](CCC(N)=O)NC1=O` [Peptide 4bb, EKI Xaa4 QSL Xaa8 FI Xaa11 KSD Xaa15 LLHNV] (Ac-EKI[S5]QSL[S5]FI[S5]KSD[S5]LLHNV-NH2; staple 4-8, 11-15), the “% helicity” value in data set [1] is given as 52.9%. Besides, the half-life at 2.9 µM at chymotrypsin turned out to be 3010 min; with trypsin it was 20 min.

Consider `Cc1ccc(CCCO)c(NCc2ccc3nc(NCCCN4CCOCC4)n(Cc4nc(C)ccc4O)c3c2)c1` [TMC-353121], for which, in the data set with hRSV, the “activity against hRSV” value is recorded as “active”. In the data set on bRSV, the “activity against bRSV” value is reported as “active”.

On to `O=c1n(Cc2nc3ccccc3n2CCCCO)c2cnccc2n1C1CC1` [BMS-433771], for which the “activity against hRSV” value with hRSV is “active”. In addition, the “activity against bRSV” value in the data set with bRSV is listed as “active”.

On to `CC[C@H](C)[C@H](NC(=O)[C@H](CCCCN)NC(=O)[C@H](CCC(=O)O)NC(C)=O)C(=O)N[C@@H](CC(N)=O)C(=O)N[C@@H](CCC(N)=O)C(=O)N[C@@H](CO)C(=O)N[C@@H](CC(C)C)C(=O)N[C@]1(C)CCCCCCC=CCCC[C@@](C)(C(=O)N[C@@H](CC(C)C)C(=O)N[C@@H](CC(C)C)C(=O)N[C@@H](Cc2c[nH]cn2)C(=O)N[C@@H](CC(N)=O)C(=O)N[C@H](C(N)=O)C(C)C)NC(=O)[C@H](CC(=O)O)NC(=O)[C@H](CO)NC(=O)[C@H](CCCCN)NC(=O)[C@H](CCCNC(=N)N)NC(=O)[C@H]([C@@H](C)CC)NC(=O)[C@H](Cc2ccccc2)NC1=O` [Peptide 4e, EKINQSL 8504 FIRKSD X511 LLHNV, reference compound] (Ac-EKINQSL[R8]FIRKSD[S5]LLHNV-NH2; staple 8-15), for which the helicity in “circular dichroism” amounted to 23.3%. Besides, the “% helicity” value in data set [1] was found to be 23.3%. In data set [2], the “block of the increase of FP / activity in the biochemical 5HB assay” value was “reasonable activity”.

As for `CC[C@H](C)[C@@H]1NC(=O)[C@H](Cc2ccccc2)NC(=O)[C@@](C)(NC(=O)[C@H](CC(C)C)NC(=O)[C@H](CO)NC(=O)[C@H](CCC(N)=O)NC(=O)[C@H](CCC(=O)O)NC(C)=O)CCCC=CCCC[C@@](C)(C(=O)N[C@@H](CO)C(=O)N[C@@H](CC(=O)O)C(=O)N[C@@H](CCC(=O)O)C(=O)N[C@@H](CC(C)C)C(=O)N[C@@H](CC(C)C)C(=O)N[C@@H](Cc2c[nH]cn2)C(=O)N[C@@H](CC(N)=O)C(=O)N[C@H](C(N)=O)C(C)C)NC(=O)[C@H](CCCNC(=N)N)NC1=O` [Peptide 3a, EQSL X504 FIR X508 SDELLHNV, reference compound] (Ac-EQSL[S5]FIR[S5]SDELLHNV-NH2; staple 5-9), the “% helicity” value in data set [1] is given as 33.9%. In the data set on RSV-mCherry (HEp-2 cells, 0.2 MOI RSV-mCherry, 48 h), this compound displayed an EC50 of over 25 µM. Also, in the data set with RSV-mCherry (RSV-mCherry), the “inhibitory activity in HEp-2 cells” value is “inactive”. In addition, the “block of the increase of FP / activity in the biochemical 5HB assay” value in data set [2] is reported as “reasonable activity”.
